# Structures can show the parent of a compound that is named as a salt.
# Assays:
# HaCaT keratinocyte cells [1] = experiment: Highest concentration above which the active exhibited cytotoxicity; type: cell-based; conditions: keratinocyte differentiation experiment of table 2
# HaCaT keratinocyte cells [2] = experiment: Keratinocyte differentiation (acridine orange staining); type: cell-based; conditions: 24 hrs, average of minimum three replicates
# Procedure: Several dicarboxylic acids were tested in an in-vitro assay viz. keratinocyte differentiation which is a well known pathway leading to skin lightening. The assay protocol is given below: 5×10^4 HaCaT keratinocyte cells/well were grown in 24 well plates for 24 hours. Cells were cultured with actives for 24 hrs. Cells were then washed with Phosphated buffer solution (PBS) and stained with 5 μg/ml acridine orange. Cells were immediately viewed using an epi-fluorescent microscope (Olympus BX 50), at 20× magnification, using appropriate excitation and barrier filters, to simultaneously view red and green fluorescence (excitation: 460 nm and emission>515 nm). The entire plate was scanned and the percentage of differentiated keratinocytes (cells with red fluorescence evenly distributed within the cytoplasm) was estimated. Data is represented as % control.
# B16 melanocytes = conditions: 1 mM active, 24 hrs, average of minimum three replicates
# Procedure: B16 melanocytes were cultured in 60 mm^2 petriplates for 2-3 days or until they reached ˜70% confluency and then actives were added and incubated for 24 hrs. Cells were harvested and protein content was estimated using Bradford method. The cells were then solubilized in 0.1N NaOH and melanin was estimated. Data are then calculated as mg melanin/mg protein and represented as % control. Decreased numbers indicate inhibition of melanin synthesis by the actives.
smiles,measurement,setting,value
O=C(O)CCCCCCCC(=O)O [azeleic acid],Conc. of active = highest possible concentration above which the active exhibited cytotoxicity,HaCaT keratinocyte cells [1],5500 µM
same,"% Keratinocyte differentiation, average",HaCaT keratinocyte cells [2]; 5.5 mM active,175 % control
O=C(O)/C=C/C(=O)O [disodium fumarate],Conc. of active = highest possible concentration above which the active exhibited cytotoxicity,HaCaT keratinocyte cells [1],10000 µM
same,"% Keratinocyte differentiation, average",HaCaT keratinocyte cells [2]; 10 mM active,183 % control
O=C(O)CCCCCCCCC(=O)O [sebacic acid],Conc. of active = highest possible concentration above which the active exhibited cytotoxicity,HaCaT keratinocyte cells [1],5000 µM
same,"% Keratinocyte differentiation, average",HaCaT keratinocyte cells [2]; 5 mM active,130 % control
CCCC(=O)[O-].[Na+] [sodium butyrate],Conc. of active = highest possible concentration above which the active exhibited cytotoxicity,HaCaT keratinocyte cells [1],1000 µM
same,"% Keratinocyte differentiation, average",HaCaT keratinocyte cells [2]; 1 mM active,174 % control
same,"Melanin (mg melanin/mg protein), average",B16 melanocytes,92 % control
O=C([O-])CCC(=O)[O-].[Na+].[Na+] [sodium succinate],Conc. of active = highest possible concentration above which the active exhibited cytotoxicity,HaCaT keratinocyte cells [1],6000 µM
same,"% Keratinocyte differentiation, average",HaCaT keratinocyte cells [2]; 6 mM active,155 % control
O=C([O-])C(O)C(O)C(=O)[O-].[Na+].[Na+] (stereo not shown) [sodium tartarate],Conc. of active = highest possible concentration above which the active exhibited cytotoxicity,HaCaT keratinocyte cells [1],10000 µM
same,"% Keratinocyte differentiation, average",HaCaT keratinocyte cells [2]; 10 mM active,165 % control
